Tests used:
[1] = molecular target: T1, RORα (Homo sapiens, UniProt P35398); experiment: RORα Gal4 reporter gene assay; type: cell-based
T1 construct: expressed in transfected cells
T1 sequence (P35398 1-523): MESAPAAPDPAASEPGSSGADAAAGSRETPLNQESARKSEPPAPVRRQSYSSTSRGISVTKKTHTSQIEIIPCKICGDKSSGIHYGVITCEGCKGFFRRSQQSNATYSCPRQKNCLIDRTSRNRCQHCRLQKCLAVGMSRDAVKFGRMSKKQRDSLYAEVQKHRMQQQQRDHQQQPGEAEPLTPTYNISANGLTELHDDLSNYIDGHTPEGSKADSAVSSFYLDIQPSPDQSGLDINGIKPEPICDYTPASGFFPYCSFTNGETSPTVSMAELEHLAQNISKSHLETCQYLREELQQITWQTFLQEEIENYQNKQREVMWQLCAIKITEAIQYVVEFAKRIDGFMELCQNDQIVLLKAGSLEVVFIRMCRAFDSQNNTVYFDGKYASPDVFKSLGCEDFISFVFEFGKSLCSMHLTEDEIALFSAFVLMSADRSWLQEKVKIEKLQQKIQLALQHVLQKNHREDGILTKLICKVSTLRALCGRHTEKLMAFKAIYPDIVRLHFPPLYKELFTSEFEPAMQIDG

[2] = molecular target: T2, RORγt LBD protein (Homo sapiens, UniProt P51449); experiment: Biacore binding to RORγt LBD protein; details: RORγt protein immobilized on CM5 chip
T2 construct: RORγt (residues 263–509)-GGG-SRC1; GGG linker + SRC1 peptide (C); His-tag (inferred from pET28a and nickel purification); made in house; host or cells: E. coli strain DE3, pET28a
T2 sequence (P51449 263-509): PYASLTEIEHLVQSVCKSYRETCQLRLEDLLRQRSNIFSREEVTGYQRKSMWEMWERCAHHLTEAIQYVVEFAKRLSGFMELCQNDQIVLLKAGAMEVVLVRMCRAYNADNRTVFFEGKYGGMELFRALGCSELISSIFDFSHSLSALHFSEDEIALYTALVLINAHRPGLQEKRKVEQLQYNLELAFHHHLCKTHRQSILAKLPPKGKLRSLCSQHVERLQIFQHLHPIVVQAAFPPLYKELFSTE
From the text: Human nuclear receptor RORγt (residues 263–509)-GGG-SRC1 (SRC1 sequence: EKHKILHRLLQDS, Sangon Biotech, Shanghai). RORγt LBD was cloned in pET28a. Key residue mutations of RORγt LBD (such as PHE388, LEU391, CYS393, LEU396, ILE397, ILE400, CYS320, ALA321, LEU324, MET358, and PHE388) with LYC-55716 were cloned in pET28a. Key residue mutations of RORγt LBD (MET365, ALA368, PHE401, ILE400, ILE397, LEU396, TRP317, CYS320, LEU324, ALA327, TYR330, VAL331, MET358, and VAL361) with 8-074 were cloned in pET28a. The proteins were expressed in E. coli strain DE3. Then, the transformed E. coli culture was grown at 37 °C with 30 μg/mL Kanamycin LB (Luria–Bertani). When the OD600 of LB medium reached 0.6, the temperature was changed to 16 °C, and isopropyl-β-D-thiogalactopyranoside (IPTG, Beyotime, Shanghai, China) was added at a final concentration of 0.4 mM to induce protein expression for 16 h. After 16 h, the pellet was collected after centrifugation at 4,000 rpm for 15 min at 4 °C. […]
The RORγt protein was immobilized on a CM5 chip (GE Health, Chicago, USA) using Biaocre 8 K. A sensogram was obtained using different serial concentrations of 8-074 (5000 nM, 2500 nM, 1250 nM, 625 nM, 312.5 nM, 156.25 nM, 78.125 nM, and 39.0625 nM). […] Data were analyzed using Biacore Evaluation Software.

[3] = Pharmacokinetics in C57BL/6 mice; type: in vivo; details: male, C57BL/6, mouse, plasma; for Tmax: n = 3
Protocol: Male C57BL/6 mice were divided into two groups: 8-074 single intravenous injection group (2 mg/kg, n = 3) and 8-074 single gavage group (5 mg/kg, n = 3). After administration, blood samples were collected at 0.25, 0.5, 1, 2, 5, 7, and 24 h. Then the plasma samples were separated and stored at − 80 °C until the analysis. After being thawed at room temperature, 10 μL of plasma samples were added with 150 μL of precipitant containing the internal standard (verapamil 40 ng/mL) for the protein precipitation. The supernatant was mixed with a suitable volume of water and then analyzed using liquid chromatography in tandem with mass spectrometry (LC-MS/MS). The concentration of 8–074 in the plasma of the C57 mice after administration was determined using the inter-run standard curve samples (linear range of 3–10,000 ng/mL) and quality control samples.

Q: For CCS(=O)(=O)c1ccc(CC(=O)Nc2ccc(-c3ccc(CC(C)C)c(C#N)c3)c(C(F)(F)F)c2)cc1 [8-074], which EC50 [1] is on record?
A: The EC50 was greater than 10000 nM.

Q: And the Kd [2]?
A: The Kd was 497 nM.

Q: What about the MRT inf ([3]; iv, 2 mg/kg, i.v. 2 mg/kg, first MRTINF line (r8)) of the same molecule?
A: Its MRT inf is 3.84 ± 0.33 h.

Q: What about the MRT inf ([3]; iv, 2 mg/kg, i.v. 2 mg/kg, second MRTINF line (r9)) of the same molecule?
A: The MRT inf was 2.97 ± 0.25 h.

Q: And the AUC(0-inf) ([3]; iv, i.v. 2 mg/kg)?
A: The AUC(0-inf) was 20600 ng·h/mL.

Q: And the AUC(0-t) ([3]; iv, i.v. 2 mg/kg)?
A: The AUC(0-t) was 20500 ng·h/mL.

Q: And the Cmax ([3]; iv, i.v. 2 mg/kg)?
A: Its Cmax is 4800 ± 1200 ng/mL.

Q: And the clearance ([3]; iv, i.v. 2 mg/kg)?
A: The clearance was 1.63 ± 0.11 mL/min/kg.

Q: And the Tmax ([3]; iv, i.v. 2 mg/kg)?
A: Its Tmax is 0.25 h.

Q: And the bioavailability ([3]; oral, i.g. 5 mg/kg vs i.v. 2 mg/kg)?
A: Its bioavailability is 38%.

Q: What about the MRT inf ([3]; po, 5 mg/kg, i.g. 5 mg/kg, first MRTINF line (r8)) of the same molecule?
A: Its MRT inf is 4.49 ± 1.2 h.

Q: What about the MRT inf ([3]; po, 5 mg/kg, i.g. 5 mg/kg, second MRTINF line (r9)) of the same molecule?
A: Its MRT inf is 3.34 ± 0.52 h.

Q: What about the AUC(0-inf) ([3]; po, i.g. 5 mg/kg) of the same molecule?
A: Its AUC(0-inf) is 19800 ng·h/mL.

Q: What about the AUC(0-t) ([3]; po, i.g. 5 mg/kg) of the same molecule?
A: Its AUC(0-t) is 19700 ng·h/mL.

Q: And the Cmax ([3]; po, i.g. 5 mg/kg)?
A: The Cmax was 3020 ± 110 ng/mL.

Q: What about the Tmax ([3]; po, i.g. 5 mg/kg) of the same molecule?
A: Its Tmax is 1.67 ± 0.58 h.

Q: What about the half-life ([3]; po, single intragastric administration of 5 mg/kg) of the same molecule?
A: Its half-life is 3.34 ± 0.52 h.

Q: And the AUC ([3]; route not given)?
A: The AUC was 20600 ± 1500 ng·h/mL.

— publication PMC9034499, “RORγt agonist enhances anti-PD-1 therapy by promoting monocyte-derived dendritic cells through CXCL10 in cancers” (Journal of Experimental & Clinical Cancer Research : CR, 2022)
